Converted amounts (≈) assume the structure as drawn.
Legend:
[1] = Mean intrinsic dissolution studies; type: physicochemical
Text: Mean intrinsic dissolution rates for exemplary batches of the two forms are shown in Table cC-2 for 3 batches of Form I (SD and % CV for one batch shown) and for Form II.

[2] = Aqueous solubility in water at indicated pH; conditions: water at adjusted pH, 26 °C, thermodynamic from solid
[3] = Further oral pharmacokinetic study in female Balb/c mice, 5, 10 and 20 mg/kg; conditions: mouse, plasma; for half-life: t½
[4] = Pharmacokinetic comparison of forms by dosing vehicle
[5] = Stability of Form I and Form II under various storage conditions; type: physicochemical
Text: In each case, the test material was first placed in Primary Packaging Material (LLDPE bag within a HMHDPE/LDPE/LDPE blend bag, and then heat sealed). The Primary Packaging Material was placed in Secondary Packaging Material (HDPE drum). All other impurities were less than 1% at each time point.

[6] = Oral pharmacokinetics in Balb/c mice, single dose 20 or 100 mg/kg; conditions: for AUCextrap: mean plasma; for AUC(0-inf) / AUC(0-t) / Cmax / Tmax / concentration at 0 h / concentration at 0.25 h / concentration at 0.5 h / concentration at 1 h / concentration at 2 h / concentration at 4 h / concentration at 6 h: Balb/c, mouse, plasma, po
Procedure: The doses were prepared as 2.0 mg/mL or 10.0 mg/mL in a vehicle of 0.5% (w/v) carboxymethyl cellulose in water and a dose volume of 10 mL/kg b.w. Blood samples were collected at various time points during the next 6 h post dose.

[7] = 5 mg/kg, Mean, 5 mg/kg single oral dose
[8] = 5 mg/kg, Median, 5 mg/kg single oral dose
[9] = 10 mg/kg, Mean, 10 mg/kg single oral dose
[10] = 10 mg/kg, Median, 10 mg/kg single oral dose
[11] = 20 mg/kg, Mean, 20 mg/kg single oral dose
[12] = 20 mg/kg, Median, 20 mg/kg single oral dose

CC[C@H]1OC(=O)[C@@](C)(F)C(=O)[C@H](C)[C@@H](O[C@@H]2O[C@H](C)C[C@H](N(C)C)[C@H]2O)[C@](C)(OC)C[C@@H](C)C(=O)[C@H](C)[C@H]2N(CCCCn3cc(-c4cccc(N)c4)nn3)C(=O)O[C@]12C [Form II, solithromycin]
Mean intrinsic dissolution rate ([1]; 0.1N Hydrochloric Acid): 8.8 mg/min/cm^2
Mean intrinsic dissolution rate ([1]; Acetate buffer, pH 4.5): 2.7 mg/min/cm^2
Mean intrinsic dissolution rate ([1]; Phosphate buffer, pH 6.8): 0.01 mg/min/cm^2
solubility at 6 h ([2]; pH 1.2, simulated gastric fluid): 3640 µg/mL (≈ 4310 µM)
solubility at 6 h ([2]; pH 4, aqueous buffer): 361 µg/mL (≈ 427 µM)
solubility at 6 h ([2]; pH 7.4, aqueous buffer): 305 µg/mL (≈ 361 µM)
solubility at 6 h ([2]; pH 9.2, aqueous buffer): 331 µg/mL (≈ 392 µM)
AUC(0-t) ([3]; 5 mg/kg, AUC 0-24, Mean, 5 mg/kg single oral dose): 4690 ng·h/mL
AUC(0-t) ([3]; 5 mg/kg, AUC 0-24, Median, 5 mg/kg single oral dose): 4310 ng·h/mL
Cmax [3, 7]: 1850 ng/mL
Cmax [3, 8]: 1800 ng/mL
Tmax [3, 7]: 1.2 h
Tmax [3, 8]: 1 h
half-life [3, 7]: 1.17 h
half-life [3, 8]: 1.12 h
AUC(0-t) ([3]; 10 mg/kg, AUC 0-24, Mean, 10 mg/kg single oral dose): 7580 ng·h/mL
AUC(0-t) ([3]; 10 mg/kg, AUC 0-24, Median, 10 mg/kg single oral dose): 7590 ng·h/mL
Cmax [3, 9]: 2630 ng/mL
Cmax [3, 10]: 2420 ng/mL
Tmax [3, 9]: 1.25 h
Tmax [3, 10]: 1 h
half-life [3, 9]: 1.42 h
half-life [3, 10]: 1.53 h
AUC(0-t) ([3]; 20 mg/kg, AUC 0-24, Mean, 20 mg/kg single oral dose): 20100 ng·h/mL
AUC(0-t) ([3]; 20 mg/kg, AUC 0-24, Median, 20 mg/kg single oral dose): 21700 ng·h/mL
Cmax [3, 11]: 5360 ng/mL
Cmax [3, 12]: 5660 ng/mL
Tmax [3, 11]: 1.1 h
Tmax [3, 12]: 1 h
half-life [3, 11]: 2.46 h
half-life [3, 12]: 2.46 h
difference in measured pharmacokinetic parameters, including Cmax, Tmax, and AUC, among Form I and Form II ([4]; dosed in a vehicle in which the compound is present as a solid): no statistical difference
difference in measured pharmacokinetic parameters, including Cmax, Tmax, and AUC, among Form I and Form II ([4]; dosed in a vehicle in which the compound is well solubilized): no observed difference
Assay (on hydrous basis) ([5]; 2-8° C., 3 Month): 93.4%
Chromatographic Purity ([5]; 2-8° C., 3 Month): 96.0
Water ([5]; 2-8° C., 3 Month): 1.24%
Assay (on hydrous basis) ([5]; 2-8° C., 6 Month): 93.6%
Chromatographic Purity ([5]; 2-8° C., 6 Month): 96.8
Water ([5]; 2-8° C., 6 Month): 1.39%
3-Ethynylaniline ([5]; 2-8° C., 9 Month): 0.01%
Assay (on hydrous basis) ([5]; 2-8° C., 9 Month): 93.3%
Chromatographic Purity ([5]; 2-8° C., 9 Month): 96.4
Water ([5]; 2-8° C., 9 Month): 1.38%
3-Ethynylaniline ([5]; 2-8° C., 12 Month): 0.12%
Assay (on hydrous basis) ([5]; 2-8° C., 12 Month): 93%
Chromatographic Purity ([5]; 2-8° C., 12 Month): 96.8
Water ([5]; 2-8° C., 12 Month): 1.37%
Assay (on hydrous basis) ([5]; 2-8° C., Initial): 93.9%
Chromatographic Purity ([5]; 2-8° C., Initial): 97.0
Water ([5]; 2-8° C., Initial): 1.01%
Assay (on hydrous basis) ([5]; 25° C./60% RH, 3 Month): 93.6%
Chromatographic Purity ([5]; 25° C./60% RH, 3 Month): 96.0%
Water ([5]; 25° C./60% RH, 3 Month): 1.16%
Assay (on hydrous basis) ([5]; 25° C./60% RH, 6 Month): 93.7%
Chromatographic Purity ([5]; 25° C./60% RH, 6 Month): 96.7%
Water ([5]; 25° C./60% RH, 6 Month): 1.42%
3-Ethynylaniline ([5]; 25° C./60% RH, 9 Month): 0.04%
Assay (on hydrous basis) ([5]; 25° C./60% RH, 9 Month): 93.2%
Chromatographic Purity ([5]; 25° C./60% RH, 9 Month): 96.2%
Water ([5]; 25° C./60% RH, 9 Month): 1.45%
3-Ethynylaniline ([5]; 25° C./60% RH, 12 Month): 0.11%
Assay (on hydrous basis) ([5]; 25° C./60% RH, 12 Month): 93.0%
Chromatographic Purity ([5]; 25° C./60% RH, 12 Month): 96.1%
Water ([5]; 25° C./60% RH, 12 Month): 1.48%
Assay (on hydrous basis) ([5]; 25° C./60% RH, Initial): 93.9%
Chromatographic Purity ([5]; 25° C./60% RH, Initial): 97.0%
Water ([5]; 25° C./60% RH, Initial): 1.01%
Assay (on hydrous basis) ([5]; 40° C./75% RH, 3 Month): 93.0%
Chromatographic Purity ([5]; 40° C./75% RH, 3 Month): 95.9%
Water ([5]; 40° C./75% RH, 3 Month): 1.24%
Assay (on hydrous basis) ([5]; 40° C./75% RH, 6 Month): 93.1%
Chromatographic Purity ([5]; 40° C./75% RH, 6 Month): 96.5%
Water ([5]; 40° C./75% RH, 6 Month): 1.62%
3-Ethynylaniline ([5]; 40° C./75% RH, 9 Month): 0.02%
Assay (on hydrous basis) ([5]; 40° C./75% RH, 9 Month): 92.5%
Chromatographic Purity ([5]; 40° C./75% RH, 9 Month): 96.2%
Water ([5]; 40° C./75% RH, 9 Month): 1.51%
3-Ethynylaniline ([5]; 40° C./75% RH, 12 Month): 0.05%
Assay (on hydrous basis) ([5]; 40° C./75% RH, 12 Month): 92.3%
Chromatographic Purity ([5]; 40° C./75% RH, 12 Month): 97.1%
Water ([5]; 40° C./75% RH, 12 Month): 1.56%
Assay (on hydrous basis) ([5]; 40° C./75% RH, Initial): 93.9%
Chromatographic Purity ([5]; 40° C./75% RH, Initial): 97.0%
Water ([5]; 40° C./75% RH, Initial): 1.01%
change in color of the test material ([5]; during the entire study, all storage conditions): no observed change in color
AUCextrap ([6]; Female Balb/c mouse, 20 mg/kg oral, listed as CEM-101 Form II, 20 mg/kg): 12%
AUCextrap ([6]; Male Balb/c mouse, 20 mg/kg oral, listed as CEM-101 Form II, 20 mg/kg): 42%
AUCextrap ([6]; Male Balb/c mouse, 100 mg/kg oral): 33%
AUC(0-inf) ([6]; female, 20 mg/kg): 36000 ng·h/mL
AUC(0-t) ([6]; female, 20 mg/kg): 31600 ng·h/mL
Cmax ([6]; female, 20 mg/kg): 8800 ng/mL
Tmax ([6]; female, 20 mg/kg): 0.5 h
concentration at 0 h ([6]; female, 20 mg/kg): 0 ng/mL
concentration at 0.25 h ([6]; female, 20 mg/kg): 6200 ± 1600 ng/mL
concentration at 0.5 h ([6]; female, 20 mg/kg): 8800 ± 800 ng/mL
concentration at 1 h ([6]; female, 20 mg/kg): 7300 ± 900 ng/mL
concentration at 2 h ([6]; female, 20 mg/kg): 6100 ± 1000 ng/mL
concentration at 4 h ([6]; female, 20 mg/kg): 5500 ± 1700 ng/mL
concentration at 6 h ([6]; female, 20 mg/kg): 1300 ± 500 ng/mL
AUC(0-t) ([6]; female, 100 mg/kg): 55000 ng·h/mL
Cmax ([6]; female, 100 mg/kg): 10500 ng/mL
Tmax ([6]; female, 100 mg/kg): 4 h
concentration at 0 h ([6]; female, 100 mg/kg): 0 ng/mL
concentration at 0.25 h ([6]; female, 100 mg/kg): 7300 ± 900 ng/mL
concentration at 0.5 h ([6]; female, 100 mg/kg): 10500 ± 1400 ng/mL
concentration at 1 h ([6]; female, 100 mg/kg): 9600 ± 2200 ng/mL
concentration at 2 h ([6]; female, 100 mg/kg): 9500 ± 2200 ng/mL
concentration at 4 h ([6]; female, 100 mg/kg): 10200 ± 1000 ng/mL
concentration at 6 h ([6]; female, 100 mg/kg): 7800 ± 1100 ng/mL
AUC(0-inf) ([6]; male, 20 mg/kg): 49000 ng·h/mL
AUC(0-t) ([6]; male, 20 mg/kg): 29000 ng·h/mL
Cmax ([6]; male, 20 mg/kg): 6730 ng/mL
Tmax ([6]; male, 20 mg/kg): 0.5 h
concentration at 0 h ([6]; male, 20 mg/kg): 0 ng/mL
concentration at 0.25 h ([6]; male, 20 mg/kg): 4100 ± 800 ng/mL
concentration at 0.5 h ([6]; male, 20 mg/kg): 6700 ± 600 ng/mL
concentration at 1 h ([6]; male, 20 mg/kg): 5900 ± 800 ng/mL
concentration at 2 h ([6]; male, 20 mg/kg): 5600 ± 400 ng/mL
concentration at 4 h ([6]; male, 20 mg/kg): 4900 ± 1100 ng/mL
concentration at 6 h ([6]; male, 20 mg/kg): 2900 ± 600 ng/mL
AUC(0-inf) ([6]; male, 100 mg/kg): 99000 ng·h/mL
AUC(0-t) ([6]; male, 100 mg/kg): 66000 ng·h/mL
Cmax ([6]; male, 100 mg/kg): 10600 ng/mL
Tmax ([6]; male, 100 mg/kg): 4 h
concentration at 0 h ([6]; male, 100 mg/kg): 0 ng/mL
concentration at 0.25 h ([6]; male, 100 mg/kg): 6800 ± 700 ng/mL
concentration at 0.5 h ([6]; male, 100 mg/kg): 6900 ± 1100 ng/mL
concentration at 1 h ([6]; male, 100 mg/kg): 8700 ± 2700 ng/mL
concentration at 2 h ([6]; male, 100 mg/kg): 9300 ± 1200 ng/mL
concentration at 4 h ([6]; male, 100 mg/kg): 10600 ± 1400 ng/mL
concentration at 6 h ([6]; male, 100 mg/kg): 7200 ± 800 ng/mL

From patent US8759500B2, “Crystalline forms of a macrolide, and uses therefor” (Cempra Pharmaceuticals, Inc., priority 2010, dated 2014)
